According to paper PMC8271486, “Assessment of Antidiabetic Activity of the Shikonin by Allosteric Inhibition of Protein-Tyrosine Phosphatase 1B (PTP1B) Using State of Art: An In Silico and In Vitro Tactics” (Molecules, 2021):

Target: T1, Protein tyrosine phosphatase 1B (PTP1B) (Homo sapiens, UniProt P18031)
T1 construct: gene PTPN1
T1 sequence (P18031 1-435): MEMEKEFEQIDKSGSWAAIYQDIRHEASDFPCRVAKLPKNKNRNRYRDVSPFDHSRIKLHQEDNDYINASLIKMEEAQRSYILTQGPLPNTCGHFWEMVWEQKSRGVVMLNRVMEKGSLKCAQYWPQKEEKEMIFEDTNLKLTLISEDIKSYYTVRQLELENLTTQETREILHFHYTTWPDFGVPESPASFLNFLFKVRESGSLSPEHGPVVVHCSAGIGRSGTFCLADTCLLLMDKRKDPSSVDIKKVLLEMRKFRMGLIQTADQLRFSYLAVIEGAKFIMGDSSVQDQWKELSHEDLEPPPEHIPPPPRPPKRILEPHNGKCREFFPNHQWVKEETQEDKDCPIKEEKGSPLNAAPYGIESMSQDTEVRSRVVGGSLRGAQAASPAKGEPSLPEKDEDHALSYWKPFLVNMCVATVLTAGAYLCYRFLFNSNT
Experiment: pNPP hydrolysis assay ([…] nm) with human recombinant PTP1B; Dixon and Lineweaver-Burk kinetics
Format: biochemical

## CC(C)=CC[C@@H](O)C1=CC(=O)c2c(O)ccc(O)c2C1=O [Shikonin, 5,8-dihydroxy-2-[(1R)-1-hydroxy-4-methylpent-3-enyl] naphthalene-1,4-dione]
  IC50: 15.5 µM
